Reference: patent publication US20250296938A1, “Compounds that Interact with the Ras Superfamily for the Treatment of Cancers, Inflammatory Diseases, Rasopathies, and Fibrotic Disease” (SHY Therapeutics, LLC, priority 2018, published 2025)
Like-named read-outs stand apart in the source and are kept apart here.

Tested on: MIA PaCa-2 pancreatic cancer cell line
Test: Cell proliferation assay (DAPI)
Format: cell-based
Conditions: Homo sapiens; for inhibition at 10 µM: read-out: % Inhibition of cell proliferation, MIA PaCa-2 % inh
Procedure: Cell lines: Human NSCLC cells NCI-H1975 and NCI-H1299, and tumor-derived pancreatic cancer cell lines Panc-1, MIA-PACA2, and BxPC3, were all purchased from American Type Culture Collection and grown in complete RPMI medium (BxPC3, NCI-H1975 and NCI-H1299) or DMEM-High Glucose (Panc1 and MIA-PaCa-2), supplemented with penicillin (100 U/mL), streptomycin (100 μg/mL), and 10% heat-inactivated FBS at 37° C. in a humidified incubator with 5% CO2.
Method: Cells were plated at 2000 to 5000 cells/well density in 96-wells plate and cultured ON. Small molecules to be tested were added to the cells in the final concentration of 10 µM in the presence of 0.3% DMSO and 10% FBS, and incubated for 2-4 days at 37° C. in a humidified incubator with 5% CO2. For IC50 value determination, serial dilutions of compounds were added to cells under the same conditions.
Assay: At the end of the incubation period, cell cultures were fixed with a 50-50 mixture (v/v) acetone-methanol for 10 minutes at −20° C., followed by rehydration in PBS for 10 minutes at room temperature. DNA total content was determined by staining cells with DAPI (1 ug/ml) in PBS for 10 minutes at room temperature, followed by 3 washes with PBS. After staining, DAPI fluorescence was recorded (358 nm excitation/461 nm emission) with the 96-well plate reader Molecular Devices Spectramax M3; degree of small molecule-dependent proliferation inhibition was calculated from raw data.

SMILES	inhibition at 10 µM (2-4 days, MIA PaCa-2) [%]	inhibition at 10 µM (MIA PaCa-2 (Table 5A)) [%]	IC50 (MIA PaCa-2 (Table 5A)) [µM]	IC50 (MIA PaCa-2) [µM]
Cc1cn(C)c(-c2nc(O)c3scc(-c4ccccn4)c3n2)n1 [drawing 537]	76 to 100			
COc1nc(-c2ccccn2)nc2c(-c3ccccn3)csc12 [drawing 648]		51 to 75	> 1	
COC1CCN(c2nc(-c3nccn3C)nc3sc(-c4ccc(CO)cc4)c(-c4ccccc4)c23)C1 (centres unmarked) [drawing 578]	76 to 100			
Cc1cc(Cn2ccnc2-c2nc(O)c3scc(-c4ccccn4)c3n2)on1 [drawing 533]	76 to 100			
COc1cccc(-c2csc3c(O)nc(-c4nccn4C)nc23)c1Cl [drawing 528]	76 to 100			> 1
CN(Cc1ccccc1)Cc1nc(-c2ccccn2)nc(O)c1O	0			
COC1CCN(c2nc(-c3nccn3C)nn3cc(-c4ccccc4)c(-c4ccccc4)c23)C1 (centres unmarked) [drawing 613]	76 to 100			
Oc1nc(-c2cn3ccccc3n2)nc2c(-c3ccccn3)csc12 [drawing 531]	76 to 100			
COCCNC(=O)c1sc2nc(-c3nccn3C)nc(N[C@@H]3CC[C@H](OC)C3)c2c1-c1ccccc1 [drawing 660]		76 to 100	> 1	
COCCn1cc(Nc2nc(-c3ccccn3)nc(OC)c2OC)cn1 [drawing 612]	26 to 50			
COc1cc(-c2sc3nc(-c4nccn4C)nc(N4CCC(OC)C4)c3c2-c2ccccc2)ccn1 (centres unmarked) [drawing 569]	76 to 100			
COCCCNc1nc(-c2nccn2C)nc2sc(-c3ccn(C)n3)c(-c3ccc(OC)cc3)c12 [drawing 553]	76 to 100			> 1
COc1cccc(-c2sc3nc(-c4nccn4C)nc(N[C@@H]4CC[C@H](OC)C4)c3c2-c2ccccc2)c1F [drawing 619]		76 to 100	0.75 to 1	
COC1CCN(c2nc(-c3nccn3C)nc3sc(-c4ccc(N)nc4C)c(-c4ccccc4)c23)C1 (centres unmarked) [drawing 579]	76 to 100			
COC1CCC(Nc2nc(-c3nccn3C)nc3sc(-c4cccc5[nH]ncc45)c(C)c23)C1 (centres unmarked) [drawing 630]		76 to 100	> 1	
CO[C@H]1C[C@H](Nc2nc(-c3nccn3C)nc3sc(-c4ccn(C)n4)c(-c4ccccc4)c23)C1 [drawing 641]		76 to 100	> 1	
COc1ncccc1-c1sc2nc(-c3nccn3C)nc(N3CCC(OC)C3)c2c1-c1ccccc1 (centres unmarked) [drawing 573]	76 to 100			
CCn1cc(Nc2nc(-c3ccccn3)nc(O)c2OC)cn1 [drawing 616]		0	> 1	
Cc1cnc(-c2nc(O)c3scc(-c4ccccn4)c3n2)n1C [drawing 536]	76 to 100			

SMILES	inhibition at 10 µM (2-4 days, MIA PaCa-2) [%]	inhibition at 10 µM (MIA PaCa-2 (Table 5A)) [%]	IC50 (MIA PaCa-2 (Table 5A)) [µM]	IC50 (MIA PaCa-2) [µM]
COC1CCN(c2nc(-c3nccn3C)nc3sc(-c4cccnc4)c(-c4ccccc4)c23)C1 (centres unmarked) [drawing 571]	76 to 100			
CCOc1cccc(Nc2nc(-c3ccccn3)nc(O)c2OC)c1 [drawing 617]		76 to 100	> 1	
COCCNc1nc(-c2nccn2C)nc2sc(-c3cc(OC)ccc3Cl)c(-c3ccccc3)c12 [drawing 568]	76 to 100			> 1
CO[C@H]1CC[C@@H](Nc2nc(-c3nccn3C)nc3sc(-c4ccn(C(C)C)n4)c(-c4ccccc4)c23)C1 [drawing 647]		76 to 100	0.5 to 0.749	
COc1nc(-c2ccccn2)nc(Nc2cnn(C)c2)c1OC [drawing 611]	1 to 25			
COC1CCN(c2nc(-c3nccn3C)nc3sc(-c4ccnn4C)c(-c4ccccc4)c23)C1 (centres unmarked) [drawing 570]	26 to 50			
COC1CCN(c2nc(-c3nccn3C)nc3sc(-c4cccc(O)c4F)c(-c4ccccc4)c23)C1 (centres unmarked) [drawing 625]		76 to 100	> 1	
COc1cccc(-c2sc3nc(-c4nccn4C)nc(N4CCC(OC)C4)c3c2-c2ccccc2)c1F (centres unmarked) [drawing 586]	76 to 100			
Oc1nc(-c2ncc3ccccn23)nc2c(-c3ccccn3)csc12 [drawing 538]	76 to 100			
Cn1ccc(-c2sc3nc(-c4nccn4C)nc(N[C@@H]4CC[C@H](O)C4)c3c2-c2ccccc2)n1 (racemic) [drawing 644]		26 to 50	> 1	
CC(C)NC(=O)c1nc(-c2nccn2C)nc(O)c1O [drawing 604]	26 to 50			
Cc1c(-c2ccn(C)n2)sc2nc(-c3nccn3C)nc(NCCCC(=O)N(C)C)c12 [drawing 652]		0	> 1	
COc1cccc(-c2sc3nc(-c4nccn4C)nc(N[C@@H]4CC[C@H](OC)C4)c3c2C)c1F [drawing 629]		76 to 100	0.75 to 1	
CO[C@H]1C[C@@H](Nc2nc(-c3ncc[nH]3)nc3sc(-c4ccn(C)n4)c(-c4ccccc4)c23)C1 [drawing 645]		76 to 100	0.75 to 1	
COC1CCN(c2nc(-c3nccn3C)nc3sc(-c4cnc(C5CC5)o4)c(-c4ccccc4)c23)C1 (centres unmarked) [drawing 574]	76 to 100			
COCCn1cc(-c2sc3nc(-c4nccn4C)nc(N4CCC(OC)C4)c3c2-c2ccccc2)cn1 (centres unmarked) [drawing 575]	76 to 100			
CC(C)CN(C)C(=O)c1nc(-c2ccccn2)nc(O)c1O [drawing 600]	0			
Oc1nc(-c2nccn2Cc2ccccn2)nc2c(-c3ccccn3)csc12 [drawing 534]	76 to 100			
CO[C@H]1CC[C@@H](Nc2nc(-c3nccn3C)nc3sc(C(=O)NC(C)C)c(-c4ccccc4)c23)C1 [drawing 659]		76 to 100	> 1	

SMILES	inhibition at 10 µM (2-4 days, MIA PaCa-2) [%]	inhibition at 10 µM (MIA PaCa-2 (Table 5A)) [%]	IC50 (MIA PaCa-2 (Table 5A)) [µM]	IC50 (MIA PaCa-2) [µM]
COCCNc1nc(-c2nccn2C)nc2sc(-c3cc(OC)ccc3Cl)c(-c3ccc(OC)cc3)c12 [drawing 563]	76 to 100			> 1
Cn1ccnc1-c1nc(O)c(O)c(C(=O)NC2CCC2)n1 [drawing 609]	1			
Cn1ccc(-c2sc3nc(-c4nccn4C)nc(N[C@H]4C[C@@H](O)C4)c3c2-c2ccccc2)n1 [drawing 643]		0	> 1	
O=C(c1nc(-c2ccccn2)nc(O)c1O)N1CCc2ccccc2C1 [drawing 594]	1 to 25			
COC1CCN(c2nc(-c3nccn3C)nc3sc(-c4ccnc(N(C)C)c4)c(-c4ccccc4)c23)C1 (centres unmarked) [drawing 582]	76 to 100			
CO[C@H]1CC[C@@H](Nc2nc(-c3ncc[nH]3)nc3sc(-c4ccn(C)n4)c(-c4ccccc4)c23)C1 [drawing 646]		76 to 100	0.75 to 1	
COCCNc1nc(-c2cn(C)cn2)nc2sc(-c3cc(OC)ccc3Cl)c(-c3ccc(OC)cc3)c12 [drawing 566]	76 to 100			
O=C(NCc1ccccc1)c1nc(-c2ccccn2)nc(O)c1O [drawing 597]	26 to 50			
Cn1ccc(-c2sc3nc(-c4nccn4C)nc(O)c3c2-c2ccccc2)n1 [drawing 639]		76 to 100	> 1	
COc1c(O)nc(-c2ccccn2)nc1Oc1ccc2ncccc2c1 [drawing 588]	1 to 25			
CCN(CC)C(=O)c1nc(-c2nccn2C)nc(O)c1O [drawing 605]	1 to 25			
CO[C@H]1C[C@@H](Nc2nc(-c3ccccn3)nc3sccc23)C1 [drawing 637]		1 to 25	> 1	
Cn1ccnc1-c1nc(O)c(O)c(C(=O)NC2CCCC2)n1 [drawing 607]	0			
COc1c(F)cccc1-c1sc2nc(-c3nccn3C)nc(N[C@@H]3CC[C@H](OC)C3)c2c1-c1ccccc1 [drawing 622]		76 to 100	0.75 to 1	
Cn1ccnc1-c1nc(O)c(O)c(C(=O)N2CCCC2)n1 [drawing 606]	0			
COCCc1ccc(Oc2nc(-c3ccccn3)nc(O)c2OC)cc1 [drawing 592]	76 to 100			
COC1CCN(c2nc(-c3nccn3C)nc3sc(-c4cnn(C)c4)c(-c4ccccc4)c23)C1 (centres unmarked) [drawing 577]	76 to 100			
COCC(C)Nc1nc(-c2nccn2C)nc2sc(-c3ccn(C)n3)c(-c3ccc(OC)cc3)c12 (centres unmarked) [drawing 554]	76 to 100			> 1
